Assays:
[1] = in vivo; settings: C57BL/6J, mouse, plasma, po, 26.5 mg/kg
Description: Total AUC last in C57BL/6J mouse plasma at 26.5 mg/kg, po and 2 mg/kg, iv by LC-MS/MS analysis

[2] = biological target: Lysophosphatidic acid receptor 1 (Homo sapiens, UniProt Q92633)
Description: Antagonist activity at human LPA1 receptor expressed in CHO cells assessed as inhibition of LPA-induced calcium mobilization pretreated for 15 mins followed by LPA stimulation by FLIPR analysis

[3] = in vivo; settings: C57BL/6J, mouse, po, 26.5 mg/kg
Description: Half life in C57BL/6J mouse at 26.5 mg/kg, po and 2 mg/kg, iv by LC-MS/MS analysis

[4] = in vitro; settings: human, liver microsomes, CLH
Description: Intrinsic clearance in human liver microsomes at 0.5 uM in presence of NADPH regenerating system measured for 45 mins per mg protein by LC-MS/MS analysis

[5] = biological target: Lysophosphatidic acid receptor 2 (Mus musculus, UniProt Q9JL06); assay: Antagonist activity at mouse LPA2 receptor expressed in HeLa cells assessed as inhibition of LPA-induced calcium mobilization pretreated for 15 mins followed by LPA stimulation by FLIPR analysis; assay type: functional, cell-based; settings: read-out: pIC50 (converted)
Lysophosphatidic acid receptor 2 (Mus musculus, UniProt Q9JL06), sequence (Q9JL06 whole entry): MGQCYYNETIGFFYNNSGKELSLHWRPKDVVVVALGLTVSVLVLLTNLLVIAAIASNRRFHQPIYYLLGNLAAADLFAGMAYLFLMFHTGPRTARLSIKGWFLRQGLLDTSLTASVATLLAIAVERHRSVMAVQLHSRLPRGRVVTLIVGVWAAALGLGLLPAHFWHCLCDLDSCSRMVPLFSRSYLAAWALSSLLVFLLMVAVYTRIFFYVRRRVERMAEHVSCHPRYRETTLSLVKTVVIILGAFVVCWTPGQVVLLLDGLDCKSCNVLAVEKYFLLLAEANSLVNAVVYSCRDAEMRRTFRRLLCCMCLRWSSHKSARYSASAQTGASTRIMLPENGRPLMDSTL

[6] = Protein binding in mouse lungs assessed as fraction unbound at 5 uM measured after 5 hrs by LC-MS/MS analysis
[7] = Efflux ratio of apparent permeability across apical to basolateral to basolateral to apical side in human Caco-2 cells at 10 uM measured after 60 mins by LC-MS/MS analysis
[8] = Protein binding in human plasma assessed as fraction unbound at 0.5 uM measured after 5 hrs by LC-MS/MS analysis
[9] = in vivo; settings: C57BL/6J, mouse, po, 26.5 mg/kg; remark: listed apart in the source
Description: Oral bioavailability in C57BL/6J mouse at 26.5 mg/kg by LC-MS/MS analysis

[10] = biological target: Lysophosphatidic acid receptor 2 (Homo sapiens, UniProt Q9HBW0)
Lysophosphatidic acid receptor 2 (Homo sapiens, UniProt Q9HBW0), sequence (Q9HBW0 whole entry): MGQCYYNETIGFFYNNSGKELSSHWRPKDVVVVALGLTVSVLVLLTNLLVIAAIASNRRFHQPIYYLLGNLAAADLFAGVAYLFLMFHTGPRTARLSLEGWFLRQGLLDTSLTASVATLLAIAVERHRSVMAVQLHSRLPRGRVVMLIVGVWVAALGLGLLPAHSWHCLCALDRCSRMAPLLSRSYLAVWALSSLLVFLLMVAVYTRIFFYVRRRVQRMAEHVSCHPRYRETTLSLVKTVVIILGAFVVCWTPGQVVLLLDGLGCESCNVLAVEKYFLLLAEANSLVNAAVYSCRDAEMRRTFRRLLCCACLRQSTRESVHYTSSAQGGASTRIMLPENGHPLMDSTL
Description: Antagonist activity at human LPA2 receptor expressed in CHO cells assessed as inhibition of LPA-induced calcium mobilization pretreated for 15 mins followed by LPA stimulation by FLIPR analysis

[11] = in vivo; settings: C57BL/6J, mouse, po, 26.5 mg/kg; remark: listed apart in the source
Description: Oral absorption in C57BL/6J mouse at 26.5 mg/kg by LC-MS/MS analysis

[12] = in vivo; settings: C57BL/6J, mouse, lung, po, 26.5 mg/kg
Description: Total AUC last in C57BL/6J mouse lungs at 26.5 mg/kg, po and 2 mg/kg, iv by LC-MS/MS analysis

[13] = in vivo; settings: C57BL/6J, mouse, lung, po, 26.5 mg/kg; remark: listed apart in the source
Description: Total Cmax in C57BL/6J mouse lungs at 26.5 mg/kg, po and 2 mg/kg, iv by LC-MS/MS analysis

[14] = in vivo; settings: C57BL/6J, mouse, plasma, po, 26.5 mg/kg; remark: listed apart in the source
Description: Total Cmax in C57BL/6J mouse plasma at 26.5 mg/kg, po and 2 mg/kg, iv by LC-MS/MS analysis

[15] = in vitro; settings: C57BL/6J, mouse, liver microsomes
Description: Intrinsic clearance in C57BL/6J mouse liver microsomes at 0.5 uM in presence of NADPH regenerating system measured for 45 mins per mg protein by LC-MS/MS analysis

[16] = Protein binding in mouse plasma assessed as fraction unbound at 0.5 uM measured after 5 hrs by LC-MS/MS analysis

Lysophosphatidic acid receptor 1, sequence (Q92633 whole entry): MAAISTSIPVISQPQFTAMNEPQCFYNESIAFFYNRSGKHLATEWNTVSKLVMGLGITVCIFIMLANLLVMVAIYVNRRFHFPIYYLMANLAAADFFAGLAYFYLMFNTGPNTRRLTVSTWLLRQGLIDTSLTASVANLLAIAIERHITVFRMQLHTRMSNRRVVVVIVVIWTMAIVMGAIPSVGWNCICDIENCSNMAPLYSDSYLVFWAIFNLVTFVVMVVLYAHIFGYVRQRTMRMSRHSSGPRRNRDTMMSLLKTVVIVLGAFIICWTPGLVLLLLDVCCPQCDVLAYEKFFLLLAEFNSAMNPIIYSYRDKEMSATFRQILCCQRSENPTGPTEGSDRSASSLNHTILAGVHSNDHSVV

COC(=O)Nc1nc(C)c(S(=O)(=O)N2CCN(C[C@H](C)Nc3ncnc4c(-c5ccc(C)nc5)cccc34)CC2)s1
AUC(0-t) [1]: 280 µg·h/mL
IC50 [2]: > 50100 nM
half-life [3]: 1.67 h
microsomal CLint at 0.75 h, 0.5 µM [4]: 34 µL/min/mg
IC50 [5]: 4.17 nM
fraction unbound at 5 h, 5 µM [6]: 0.0175
efflux ratio at 1 h, 10 µM [7]: 5.7
fraction unbound at 5 h, 0.5 µM [8]: < 0.01
bioavailability [9]: 87%
IC50 [10]: 2.45 nM
Fa [11]: 97%
AUC(0-t) [12]: 50.5 µg·h/mL
Cmax [13]: 15400 ng/mL
Cmax [14]: 71500 ng/mL
microsomal CLint at 0.75 h, 0.5 µM [15]: 49 µL/min/mg
fraction unbound at 5 h, 0.5 µM [16]: 0.0011

Reference: ChEMBL document CHEMBL5385906, “Discovery of a Potent, Selective, and Orally Bioavailable Tool Compound for Probing the Role of Lysophosphatidic Acid Type 2 Receptor Antagonists in Fibrotic Disorders” (J Med Chem, 2023)
